Where a name gives a salt, the structure may show the parent alone.
Columns and labels:
Phosphorylated eIF4E = assay: Intracellular peIF4E signaling assay; type: cell-based; conditions: 2 h; two hours incubation at 37° C.; read-out: peIF4E signaling cell assay IC50
Method: Phosphorylated eIF4E was determined using CisBio peIF4E assay kit (CisBio, catalog number 64EF4PEG). The cells were plated in a 96-well cell culture plate in a volume of 90 μL, and the number of cells per well was 5*10^4. The compounds (10×) were subjected to 3-fold serial dilution, added to the cell plate in a volume of 10 μL with the final DMSO concentration being 1%, and incubated at 37° C. for two hours. The cell plate was centrifuged at 300 g for 5 minutes, and the cell supernatant was carefully removed. The cell plate was immediately added with 50 μL of cell lysis buffer […] and incubated at 25° C. with shaking for at least 30 minutes. After homogenization by pipetting, 16 μL of cell lysate was transferred from the 96-well cell culture plate to a 384-well small-volume microwell plate. According to the kit instruction, an antibody mixture solution was prepared with a detection buffer, and was added in a volume of 4 μL to the 384-well small-volume microwell plate containing the cell lysate. The plate was covered with a plate sealer, incubated overnight at 25° C., and was read for fluorescence emission at two different wavelengths (665 nm and 615 nm) on the EnVision microplate reader counter. The emission ratio was imported into a GraphPadPrism software to fit the compound concentration (IC50) required for 50% inhibition of enzyme activity.
In this respect, IC50 values which are less than 0.05 μM were marked as “+++”, which are from 0.05 to 1.0 μM were marked as “++”, and which are greater than 1.0 and up to 100 μM were marked as “+”, and NA meant “not detected”.

MNK1 = MNK1 (Homo sapiens, UniProt Q9BUB5); assay: KinomeScan, MNK1; type: binding
Chain of MNK1 (Q9BUB5 whole entry): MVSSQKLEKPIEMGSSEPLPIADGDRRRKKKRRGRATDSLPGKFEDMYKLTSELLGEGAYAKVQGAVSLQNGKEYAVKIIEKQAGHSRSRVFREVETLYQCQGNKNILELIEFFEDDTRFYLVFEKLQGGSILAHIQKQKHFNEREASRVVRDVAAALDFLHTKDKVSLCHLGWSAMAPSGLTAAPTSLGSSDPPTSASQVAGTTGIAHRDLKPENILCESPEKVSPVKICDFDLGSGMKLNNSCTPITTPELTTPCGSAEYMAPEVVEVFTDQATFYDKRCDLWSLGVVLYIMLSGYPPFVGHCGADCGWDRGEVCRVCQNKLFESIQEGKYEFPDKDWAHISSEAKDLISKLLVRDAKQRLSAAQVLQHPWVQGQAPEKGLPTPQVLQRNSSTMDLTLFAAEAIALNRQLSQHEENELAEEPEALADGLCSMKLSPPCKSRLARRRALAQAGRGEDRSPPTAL
Excerpt: KinomeScan was used to determine the kinase selectivity of compound 2.

[1] = Pharmacokinetic study in rats; type: in vivo; conditions: male, SD, plasma, rat
Method: In the examples, rat pharmacokinetic tests were performed for compounds 2 and 26 to illustrate their pharmacokinetic properties in rats.
Formulation of Liquors of Compound 2: […]
Experimental Method for Pharmacokinetic Study in Rats
(§1) Six SD rats, male, weighing 180-220 g, fasting for 12 hours, were randomly divided into 2 groups, 3 in each group. The animals in group A were intragastrically administrated with the compound liquor at a dose of 10 mg/kg; the animals in group B were intravenously administrated with the compound liquor via tails at a dose of 3 mg/kg. Blank blood was harvested before administration; about 100 μL of venous blood was harvested at different time points after administration, placed in a test tube added with heparin and centrifuged, and about 50 μL of blood plasma was collected and stored at −20° C. for testing.
Formulation of Liquors of Compound 26: […]
Formulation of solution for intravenous administration: compound 26 was dissolved in a solution of 5% DMSO+10% Solutol HS15+85% (20% HP-(3-CD physiological saline).
Formulation of suspension for intragastric administration: compound 26 was dissolved in a solution of 5% DMSO+10% Solutol HS15+85% (20% HP-(3-CD physiological saline).
Administration dosage of compound 26: 1 mg/kg for intravenous injection, 3 mg/kg for intragastric administration.
as §1, with “of 3” for “of 10”, “of 1” for “of 3”

MNK2 = MNK2 (Homo sapiens, UniProt Q9HBH9); assay: MNK biological enzyme assay (HTRF kinase assay), MNK2; type: biochemical; design: purchased ThermoFisher PV5607; conditions: 1 ng/μl MNK2, 1 μM STK1 peptide, 100 μM ATP
Chain of MNK2 (Q9HBH9 whole entry): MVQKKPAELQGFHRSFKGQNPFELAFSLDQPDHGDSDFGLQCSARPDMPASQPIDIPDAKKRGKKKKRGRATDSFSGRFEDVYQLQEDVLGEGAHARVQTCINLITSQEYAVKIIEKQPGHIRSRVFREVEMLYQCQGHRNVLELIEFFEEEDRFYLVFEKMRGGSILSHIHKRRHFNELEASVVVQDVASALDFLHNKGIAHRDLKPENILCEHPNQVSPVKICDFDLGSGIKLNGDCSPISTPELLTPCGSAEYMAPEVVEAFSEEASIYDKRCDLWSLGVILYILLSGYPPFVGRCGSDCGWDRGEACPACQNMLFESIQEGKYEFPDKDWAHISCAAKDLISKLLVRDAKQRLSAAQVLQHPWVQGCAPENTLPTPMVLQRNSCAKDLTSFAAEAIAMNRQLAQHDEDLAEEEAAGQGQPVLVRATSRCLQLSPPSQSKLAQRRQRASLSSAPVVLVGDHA
Method: A HTRF kinase assay kit (Cisbio, catalog number 62ST1PEB) was used to determine the MNK inhibitory activity of the compounds. All kinase reactions were performed in the reaction buffer (provided in the kit). The final MNK1 reaction involved 3 ng/ul recombinant MNK1 (ThermoFisher, PV6023), 1 μM MNK substrate peptide STK1 (provided in the kit), 100 μM ATP, and different concentrations of the inhibitory compounds of interest. The final MNK2 reaction involved 1 ng/μl recombinant MNK2 (ThermoFisher, PV5607), 1 μM MNK substrate peptide STK1 (provided in the kit), 100 μM ATP, and different concentrations of the inhibitory compounds of interest. The final DMSO concentration in each of the reactions was 1%.
The kinase reaction was performed in a final volume of 10 μl in a 384-well white flat-bottomed polystyrene plate. The MNK1/2 enzyme was pre-incubated with the compound and substrate peptide for 5 minutes, and then ATP was added thereto. After addition of ATP, the kinase reaction was incubated at 25° C. for 120 minutes or 60 minutes. The reaction was subsequently terminated by adding 5 μl of EU3+ substrate antibody detection reagent and 5 μl of XL665 detection reagent, and incubating for another 60 minutes. The luminescent signal was detected with an EnVision microplate reader counter (Perkin Elmer), and the signal from 10-point dilution series of the compounds was used to calculate the compound concentration (IC50) required to achieve 50% inhibition of enzyme activity.
In this respect, IC50 values which are less than 0.01 μM were marked as “+++”, which are from 0.01 to 0.1 μM were marked as “++”, and which are greater than 0.1 and up to 10.0 μM were marked as “+”, and NA meant “not detected”.

In the case of `Cc1c2c(c(=O)n3c1C(=O)NC31CCCCC1)Nc1cc(N)ncc1C2` [Compound 2, 8′-amino-12′-methyl-6′,11′-dihydro-2′H-spiro[cyclohexane-1,3′-imidazole[1′,5′:1,6]pyrido[3,4-B][1,6]naphthyridine]-1′,5′-dione hydrochloride], the IC50 (Phosphorylated eIF4E) is reported as less than 50 nM, the inhibition at 1 µM (MNK1) is reported as 97.2% and the AUC(0-inf) ([1]; iv, 3 mg/kg) is reported as 471 ng·h/mL. It also gave an AUC(0-t) ([1]; iv, 3 mg/kg) of 456 ng·h/mL, a clearance ([1]; iv, 3 mg/kg) of 110 mL/min/kg and a half-life ([1]; iv, 3 mg/kg) of 1.58 h. The Vd ([1]; iv, i.v., 3 mg/kg, read-out: Vz) was 12.3 L/kg, the bioavailability ([1]; oral, p.o. 10 mg/kg vs i.v. 3 mg/kg) was 38.8% and the AUC(0-inf) ([1]; po, 10 mg/kg) was 624 ng·h/mL. It also gave an AUC(0-t) ([1]; po, 10 mg/kg) of 584 ng·h/mL, a Cmax ([1]; po, 10 mg/kg) of 130 ng/mL and a Tmax ([1]; po, 10 mg/kg) of 2.17 h. The half-life ([1]; po, 10 mg/kg) was 5.07 h and the IC50 (MNK2) was less than 10 nM.
